How the values were obtained:
[1] = Cytotoxicity against human PBMC assessed as cell viability measured during MIF secretion assay at 100 uM after 21 hrs by MTS assay; type: cell-based; settings: PBMC (peripheral blood mononuclear cells)
[2] = biological target: T1, Macrophage migration inhibitory factor (Homo sapiens) (UniProt P14174); test: Inhibition of MIF in human PBMC assessed as MIF secretion at 10 uM after 5 hrs by ELISA
T1 sequence (whole entry): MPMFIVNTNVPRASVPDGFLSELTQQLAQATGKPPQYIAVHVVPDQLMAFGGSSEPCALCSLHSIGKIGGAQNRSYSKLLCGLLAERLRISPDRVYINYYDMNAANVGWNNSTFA

PBMC [3] = test: Antiinflammatory activity in human PBMC assessed as inhibition of MIF-induced IL-6 production at 100 uM after 21 hrs by ELISA; type: functional
[4] = biological target: T1, Macrophage migration inhibitory factor (Homo sapiens); test: Inhibition of human purified MIF tautomerase activity at 100 uM after 30 mins
[5] = biological target: T1, Macrophage migration inhibitory factor (Homo sapiens); test: Inhibition of human purified MIF tautomerase activity at 10 uM after 30 mins
[6] = Cytotoxicity against human PBMC assessed as cell viability measured during cytokines production assay at 100 uM after 21 hrs by MTS assay; type: cell-based; settings: PBMC (peripheral blood mononuclear cells)
PBMC [7] = test: Antiinflammatory activity in human PBMC assessed as inhibition of MIF-induced IL1-beta production at 100 uM after 21 hrs by ELISA; type: functional
PBMC [8] = test: Antiinflammatory activity in human PBMC assessed as inhibition of MIF-induced TNFalpha production at 100 uM after 21 hrs by ELISA; type: functional
[9] = biological target: T1, Macrophage migration inhibitory factor (Homo sapiens); test: Inhibition of MIF in human PBMC assessed as MIF secretion at 100 uM after 5 hrs by ELISA
PBMC [10] = test: Antiinflammatory activity in human PBMC assessed as inhibition of MIF-induced IL-6 production at 30 uM after 21 hrs by ELISA; type: functional

SMILES | cytotoxicity at 21 h, 100 µM [1] | inhibition [2] | inhibition at 100 µM (PBMC [3]) | inhibition [4] | inhibition [5] | cytotoxicity at 21 h, 100 µM [6] | inhibition at 100 µM (PBMC [7]) | inhibition at 100 µM (PBMC [8]) | inhibition [9] | inhibition at 30 µM (PBMC [10])
COC(=O)C1(C)CC(c2cn(-c3cccc(C(F)(F)F)c3)c3ccccc23)=NO1 (stereo not given) | 5% | 4% | 65% | 66% | 13% | 2% | 89% | 81% | 0% | 25%
CC(C)(C)C(=O)OC1CC(c2ccoc2)=NO1 (stereo not given) | 0% | 40% | 1% | 30% | 13% | 8% | 6% | 0% | 86% | 3%
COC(=O)C1(C)CC(c2ccoc2)=NO1 (stereo not given) | 4% | 0% | 11% | 22% | 22% | 1% | 39% | 30% | 0% | 0%
CC(C)(C)C(=O)OC1CC(c2cn(-c3cccc(C(F)(F)F)c3)c3ccccc23)=NO1 (stereo not given) | 0% | 0% | 12% | 100% | 15% | 15% | 15% | 0% | 5% | 10%
